Experimental data as given in patent US7923465B2, “Cannabinoid receptor ligands, pharmaceutical compositions containing them, and process for their preparation” (priority 2005, dated 2011).
Read-outs that look alike come from different tables or passages of the source.

Columns and labels:
Format in all cases: cell-based
hCB1 [1] = biological target: T1, hCB1 (Homo sapiens, UniProt P21554); assay: Agonism of CB1 receptors expressed in CHO cells, forskolin cAMP assay (Protocol IX.2); set-up: expressed in transfected cells; host or cells: CHO (h-CB1/CHO, G418-selected); details: for activation at 10 µM: CHO
T1 sequence (P21554 whole entry): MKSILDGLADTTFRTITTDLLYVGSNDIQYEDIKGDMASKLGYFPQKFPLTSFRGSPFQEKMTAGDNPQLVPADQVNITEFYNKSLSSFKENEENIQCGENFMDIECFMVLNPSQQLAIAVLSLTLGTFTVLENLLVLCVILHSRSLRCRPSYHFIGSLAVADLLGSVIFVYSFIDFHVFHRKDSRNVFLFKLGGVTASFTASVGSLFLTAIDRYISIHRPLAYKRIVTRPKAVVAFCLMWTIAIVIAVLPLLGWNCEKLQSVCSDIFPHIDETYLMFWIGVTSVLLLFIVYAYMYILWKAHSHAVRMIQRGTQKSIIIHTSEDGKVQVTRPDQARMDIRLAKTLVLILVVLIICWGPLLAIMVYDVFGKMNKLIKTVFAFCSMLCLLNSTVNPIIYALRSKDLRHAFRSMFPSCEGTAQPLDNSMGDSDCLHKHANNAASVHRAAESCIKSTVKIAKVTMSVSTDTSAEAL
How it was run: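 CHO cells stably expressing hCB1 stimulated with forskolin in Krebs buffer with 0.1% FAF BSA and 1 mM IBMX. Lysed cells' cAMP measured by chemiluminescence; EC50 from nonlinear regression of dose-response curves.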

hCB2 [2] = biological target: T2, hCB2 (Homo sapiens, UniProt P34972); assay: Agonism of CB2 receptors expressed in CHO cells, forskolin cAMP assay (Protocol IX.2); set-up: expressed in transfected cells; host or cells: CHO (h-CB2/CHO, G418-selected); details: cAMP
T2 sequence (P34972 whole entry): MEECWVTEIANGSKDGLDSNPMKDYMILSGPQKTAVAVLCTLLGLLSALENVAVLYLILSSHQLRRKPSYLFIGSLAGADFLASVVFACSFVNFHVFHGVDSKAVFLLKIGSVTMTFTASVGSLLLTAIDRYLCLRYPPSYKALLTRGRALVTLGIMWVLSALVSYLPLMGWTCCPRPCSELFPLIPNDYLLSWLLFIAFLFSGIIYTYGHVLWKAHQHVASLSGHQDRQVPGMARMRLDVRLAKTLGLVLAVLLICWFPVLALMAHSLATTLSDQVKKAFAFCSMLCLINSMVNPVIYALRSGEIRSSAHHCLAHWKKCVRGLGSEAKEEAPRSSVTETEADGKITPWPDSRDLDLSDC
How it was run: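 CHO cells expressing h-CB2 were treated with compound in Krebs buffer with 0.1% FAF BSA and 1 mM IBMX, plus 10 uM forskolin, for 30 minutes at room temperature. cAMP in lysates was measured by chemiluminescence. EC50 was derived by nonlinear regression of dose–response curves, with CP 55,940 at 10 μM as reference for CB2.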

hCB2 [3] = biological target: T2, hCB2; assay: Antagonism of CB2 receptors expressed in CHO cells, cAMP assay against CP 55,940 (Protocol IX.1); set-up: expressed in transfected cells; host or cells: CHO (h-CB2/CHO, G418-selected); details: CHO, h-CB2/CHO cells, vs 10 nM CP 55,940
How it was run: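 h-CB2/CHO cells in Krebs buffer with 0.1% FAF-BSA and 1 mM IBMX were pre-incubated 10 min with antagonist, then stimulated 30 min at room temperature with 10 nM CP 55,940 plus 10 μM forskolin. cAMP quantified by chemiluminescence; values from nonlinear regression of dose–response curves.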

hCB1 [4] = biological target: T1, hCB1; assay: Antagonism of CB1 receptors expressed in CHO cells, cAMP assay against CP 55,940 (Protocol IX.1); set-up: expressed in transfected cells; host or cells: CHO (h-CB1/CHO, G418-selected); details: h-CB1/CHO cells, cAMP, vs 30 nM CP 55,940; for inhibition at 10 µM: read-out: hCB1 Antagonism
[5] = at 10 uM, h-CB1/CHO cells, cAMP
[6] = hCB2 Agonism IC50, h-CB2/CHO cells
[7] = bare number, no unit or concentration given

Compound	activation at 10 µM (hCB1 [1]; [5]) [%]	IC50 (hCB2 [2]; [6]) [nM]	inhibition at 10 µM (hCB2 [3]) [%]	inhibition at 10 µM (hCB1 [4]; at 10 uM) [%]	inhibition at 1 µM (hCB1 [4]; at 1 uM) [%]	hCB1 Agonism (hCB1 [1]; [7])	IC50 (hCB2 [2]; h-CB2/CHO cells, read-out: hCB2 Agonism IC50) [nM]	hCB1 Agonism (hCB1 [1]; [5]) [% at]	hCB1 Antagonism (hCB1 [4]; at 10 uM) [% at]
CN(NC(=O)c1nn(-c2ccc(Cl)cc2)c2c1C1CCC2C1)C1CCCCC1 (stereo not shown) [Example 213, N(3)-[(N-Cyclohexyl-N-methyl)amino]-1-(4-chlorophenyl)-4,5,6,7-tetrahydro-1H-4,7-methano-indazole-3-carboxamide]	0	12.7	22.1	0	–	–	–	–	–
O=C(NNc1ccccc1Br)c1nn(-c2ccc(Cl)cc2Cl)c2c1C1CCC2C1 (stereo not shown) [Example 263, N(3)-[(2-Bromophenyl)amino]-1-(2,4-dichlorophenyl)-4,5,6,7-tetrahydro-1H-4,7-methano-indazole-3-carboxamide]	16.2	2.5	27.1	–	72.1	–	–	–	–
O=C(NCc1ccc(Cl)cc1Cl)c1nn(-c2ccc(Cl)cc2Cl)c2c1C1CCC2C1 (stereo not shown) [Example 251, N(3)-(2,4-Dichlorobenzyl)-1-(2,4-dichlorophenyl)-4,5,6,7-tetrahydro-1H-4,7-methano-indazole-3-carboxamide]	37	40.2	40.8	0	–	–	–	–	–
O=C(NC1CCCCC1)c1nn(-c2ccc(Br)cc2)c2c1C1CCC2C1 (stereo not shown) [Example 275, N(3)-Cyclohexyl-1-(4-bromophenyl)-4,5,6,7-tetrahydro-1H-4,7-methano-indazole-3-carboxamide]	16.4	4.49	19.1	0	–	–	–	–	–
O=C(NNc1ccc(Cl)cc1Cl)c1nn(-c2ccc(Cl)cc2Cl)c2c1C1CCC2C1 (stereo not shown) [Example 260, N(3)-[(2,4-Dichlorophenyl)amino]-1-(2,4-dichlorophenyl)-4,5,6,7-tetrahydro-1H-4,7-methano-indazole-3-carboxamide]	–	4.1	34.8	–	–	0	–	–	–
O=C(NCc1ccccc1Cl)c1nn(-c2ccc(Cl)cc2)c2c1C1CCC2C1 (stereo not shown) [Example 221, N(3)-(2-Chlorobenzyl)-1-(4-chlorophenyl)-4,5,6,7-tetrahydro-1H-4,7-methano-indazole-3-carboxamide]	0	–	30.1	0	–	–	36.4	–	–
O=C(NN1CCCCC1)c1nn(-c2ccc(Cl)cc2)c2c1C1CC3CC(C1)CC2C3 [Example 140, N(7)-Piperidino-5-(4′-chlorophenyl)-5,6-diazatetracyclo[7.3.1.1^3,11.0^4,8]tetradeca-4(8)-6-diene-7-carboxamide]	–	–	–	–	–	–	–	48.88	19.31
O=C(NNc1ccccc1Cl)c1nn(-c2ccc(Cl)cc2Cl)c2c1C1CCC2C1 (stereo not shown) [Example 257, N(3)-[(2-Chlorophenyl)amino]-1-(2,4-dichlorophenyl)-4,5,6,7-tetrahydro-1H-4,7-methano-indazole-3-carboxamide]	–	3.7	37.5	–	–	0	–	–	–
